# According to patent publication US20110038796A1, “Method of Nuclear Medical Photography Using Dual-Isotopes” (ATOMIC ENERGY COUNCIL-INSTITUTE OF NUCLEAR ENERGY RESEARCH, priority 2009, published 2011):
# Where a name gives a salt, the structure may show the parent alone.
# Columns and labels:
# [1] = test system: dopamine transporter; assay: SPECT with [^99mTc]TRODAT-1 (single-isotope or dual-isotopes), specific uptake ratio in striatum; format: in vivo, Macaca Cyclopis
# Experimental: (§1) Please refer to FIG. 1, which is a flow view showing a preferred embodiment according to the present disclosure. As shown in the figure, the present disclosure is a method of nuclear medical photography using dual-isotopes, where effect of using dual isotopes on diagnosing anomalies of dopamine and serotonin in primate's brain is evaluated. The present disclosure comprises the following steps: (a) Obtaining control group 11: A control group is obtained, comprising at least one first individual applied with an imaging agent of single-isotope of [^99mTc]TRODAT-1 for dopamine transporter; at least one second individual applied with an imaging agent of single-isotope of [^123I]ADAM for serotonin transporter; and at least one third individual applied with imaging agents of dual-isotopes of [^99mTc]TRODAT-1 and [^123I]ADAM. Therein, the individuals are non-human primates, like Macaca Cyclopis.
# (§2) (b) Taking photos for control group 12: Photos of the first to the third individuals in the control group are taken through single photon emission computed tomography (SPECT). Therein, on taking the photo of the first individual applied with the single-isotope of [^99mTc]TRODAT-1, 90 mg/ml of KClO4 is applied to the first individual at first; and, then, after 20 minutes, 740 MBq (20 mCi) of [^99mTc]TRODAT-1 is injected from intravenous. After [^99mTc]TRODAT-1 is injected, a SPECT device equipped with dual-headed gamma cameras (Hawkeye, Millennium VG, General Elecral Medical System, Milwaukee, Wis. USA) coordinated with fan-beam collimators is used to take photos, where 15 dynamic sequence of brain images are taken during 30 minutes (2 min/frame). Therein, an energy window is set between 126 Kev and 154 Kev; data of 128×128 pixel-matrice are fetched; each photo are enlarged for 1.6 times; a photo is taken for each 3° from 360°; and, each of the two detectors is responsible for taking photos for 180°. After data are collected and processed through Metz filter with attenuation calibration, three three-dimensional (3D) photos of coronal, sagittal and transaxial sections are formed. On taking the photo of the second individual applied with the single-isotope of [^123I]ADAM, 185 MBq (5 mCi) of [^123I]ADAM is injected from intravenous; and, an energy window is set between 143 Kev and 175 Kev. On taking the photo of the third individual applied with the dual-isotopes, 90 mg/ml of KClO4 is applied to the […] at first; and, after 20 minutes, 740 MBq (20 mCi) of [^99mTc]TRODAT-1 and 185 MBq (5 mCi) of [^123I]ADAM are injected from intravenous almost simultaneously. Therein, an energy window for [^99mTc]TRODAT-1 is set between 129 Kev and 151 Kev and another energy window for [^123I]ADAM is set between 159 Kev and 175 Kev.
# (§3) (c) Analyzing photos of control group 13: Magnetic resonance imaging (MRI) photos of the first to the third individuals are taken to provide reference information for the following analysis:
# (§4) (c3) Analysis on dual-isotopes: The photo of the third individual applied with the dual-isotopes of [^123I]ADAM and [^99mTc]TRODAT-1 obtained in step (b) are processed through visual interpretation to figure out an SUR of [^99mTc]TRODAT-1 in striatum and an SUR of [^123I]ADAM in midbrain, thalamus, striatum and frontal cortex.
# [2] = molecular target: dopamine transporter (Homo sapiens, UniProt Q01959); conditions: cited from earlier work
# [3] = test system: serotonin transporter; assay: SPECT with [^123I]ADAM (single-isotope or dual-isotopes), specific uptake ratio in brain regions; format: in vivo, Macaca Cyclopis
# Experimental: as §1, §2, §3
# (c1) Analysis on [^123I]ADAM: The photo of the […] individual applied with the single-isotope of [^123I]ADAM obtained in step (b) are processed through visual interpretation to pick out regions of interest (ROI) abundant in serotonin transporter, like midbrain, thalamus, striatum and frontal cortex; and a region lack of serotonin transporter, like cerebellum, is set as background. Mean counts per pixel (MCPP) of the ROIs are deducted with MCPPs of the background and then are divided by the MCPPs of the background to figure out a specific uptake ratios (SUR) of the single-isotope of [^123I]ADAM.
# as §4
# [4] = 180 to 210 minutes after injection
# Sequence of dopamine transporter (Homo sapiens, UniProt Q01959) (Q01959 whole entry): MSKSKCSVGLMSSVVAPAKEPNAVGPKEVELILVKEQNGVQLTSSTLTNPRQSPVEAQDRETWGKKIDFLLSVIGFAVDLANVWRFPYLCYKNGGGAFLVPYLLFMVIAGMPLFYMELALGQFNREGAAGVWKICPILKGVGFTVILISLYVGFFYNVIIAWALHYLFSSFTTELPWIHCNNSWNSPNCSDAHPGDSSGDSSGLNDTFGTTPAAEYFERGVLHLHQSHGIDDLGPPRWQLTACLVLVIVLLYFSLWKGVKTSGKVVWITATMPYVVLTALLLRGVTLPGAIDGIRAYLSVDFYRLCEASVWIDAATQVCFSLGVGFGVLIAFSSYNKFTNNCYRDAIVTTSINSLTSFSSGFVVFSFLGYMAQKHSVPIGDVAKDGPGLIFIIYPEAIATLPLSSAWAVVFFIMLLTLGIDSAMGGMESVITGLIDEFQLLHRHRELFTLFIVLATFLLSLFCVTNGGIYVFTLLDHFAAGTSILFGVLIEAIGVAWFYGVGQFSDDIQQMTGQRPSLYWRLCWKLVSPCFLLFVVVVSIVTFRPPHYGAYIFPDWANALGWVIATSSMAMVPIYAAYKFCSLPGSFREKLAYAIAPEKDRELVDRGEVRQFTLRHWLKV
structure (smiles),measurement,setting,value
CN1[C@H]2CC[C@@H]1[C@@H](CN(CC[S-])CC[N-]CC[S-])[C@@H](c1ccc(Cl)cc1)C2.[O]=[99Tc+4] [[^99mTc]TRODAT-1],"[^99mTc]TRODAT-1 SUR of striatum, single-isotope versus dual-isotopes",[1]; [4],no big difference
same,time to reach the highest binding level after injection,[2],within two hours
CN(C)Cc1ccccc1Sc1ccc([123I])cc1N [[^123I]ADAM],"[^123I]ADAM photos, single-isotope versus dual-isotopes",[3]; [4],no big difference
same,binding of [^123I]ADAM in brain regions (SPECT photos),"[3]; 180 to 210 minutes after injection, midbrain, thalamus and striatum, single-isotope or dual-isotopes",bound to regions abundant in serotonin transporter
same,"[^123I]ADAM SURs, single-isotope versus dual-isotopes","[3]; striatum, thalamus, midbrain and frontal cortex",no big difference
CNCCC(Oc1ccc(C(F)(F)F)cc1)c1ccccc1 (stereo not drawn) [fluoxetine],[^99mTc]TRODAT-1 SURs after pretreatment with fluoxetine,"[1]; dual-isotopes, 180 to 210 minutes after injection, pretreated with fluoxetine for 16 hours",no big changes
same,uptakes of [^99mTc]TRODAT-1 of striatum after pretreatment with fluoxetine versus not pretreated (conclusion),[1]; pretreated with fluoxetine for 16 hours,no big difference
COC(=O)C(c1ccccc1)C1CCCCN1 (stereo not drawn) [methylphenidate HCl],uptakes of [^99mTc]TRODAT-1 of striatum after pretreatment with methylphenidate HCl (conclusion),[1]; dual-isotopes,obviously reduced
same,[^99mTc]TRODAT-1 SURs after pretreatment with methylphenidate HCl,"[1]; dual-isotopes, 180 to 210 minutes after injection, methylphenidate HCl 1 mg/kg 10 minutes before",greatly lowered
same,uptakes of [^123I]ADAM after pretreatment with methylphenidate HCl versus not pretreated,"[3]; midbrain, striatum, thalamus and frontal cortex, dual-isotopes, 180 to 210 minutes after injection, methylphenidate HCl 1 mg/kg",no big difference
same,specific uptakes of [^123I]ADAM after pretreatment with methylphenidate HCl versus not pretreated (conclusion),"[3]; midbrain, thalamus, striatum and frontal cortex",no big changes
same,[^123I]ADAM SURs after pretreatment with methylphenidate HCl,"[3]; striatum, thalamus and midbrain, dual-isotopes, methylphenidate HCl 1 mg/kg",no big changes
